Source: patent US5854211A, “Compounds with growth hormone releasing properties” (Novo Nordisk A/S, priority 1993, dated 1998)
Residues, ends and D or L forms follow the SMILES beside them.

Tested on: rat pituitary cells
Test: In-vitro assay of GH secretion from cultured rat pituitary cells (rGH measured by SPA)
Format: cell-based
Conditions: mixed rat anterior pituitary cell culture, 15 min stimulation at 37° C.
Procedure: An in-vitro assay using rat pituitary cells was established to study the effect of different GH secretagogues. The mixed pituitary cell culture was isolated from the anterior pituitary of male rats and cultured for 3 days. After washing the cells were stimulated for 15 min and the amount of GH secreted measured in the culture supernatant. The isolation of rat pituitary cells was a modification of Sartor, O. et al., Endocrinology 116, 1985, pp. 952-957. Pituitaries were discharged from 250 g male Sprague-Dawley rats after decapitation. The neurointermediate lobes were removed and the remainder was placed in Gey's medium supplemented with 0.25% glucose, 2× non essential amino acid and 1% BSA (isolation buffer). The glands were cut into small pieces and transferred to a flask containing 3 ml isolation buffer +11.5 mg trypsin and 1000 μg DNase and incubated for 35 min at 37° C., 95% O2 and 70 rotations per min. The fragments were washed 3 times by sedimentation in isolation buffer and aspirated into single cells by using a pasteur pipet. After dispersion the cells were filtered though a nylon filter (160 μm) to remove undigested tissue. The cells were washed 3 times with isolation buffer supplemented with trypsin inhibitor (0.75 mg/ml) and resuspended in culture medium (DMEM supplemented with 25 mM HEPES, 4mM Glutamine, 0.75% sodium bicarbonate, 2.5% FCS, 3% horse serum, 10% rat serum, 1 nM T3 and 40 μg/L dexamethasone) to a density of 2×10^5 cells/ml. The cells were seeded into microtiter plates, 200 μl/well and cultured for 3 days at 37° C. and 8% CO2. Following the culture period the cells were washed twice with stimulation buffer (HBSS supplemented with 1% BSA, 0.25% D-glucose and 25 mM HEPES) and preincubated for 1 hour. […] The buffer was collected and analyzed for rat growth hormone (rGH) content in a scintillation proximity assay (SPA) as follows (SPA, essentially as described in U.S. Pat. […] USA 82, 1985, pp. 8672-8676). The rGH assay was performed in OptiPlates (96-well plates) suitable for direct counting in a […] TopCount (β-scintillation counter). Assay protocol: 40 μl buffer 10 μl sample (incubated stimulation buffer) 50 μl ^125 I-rGH 50 μl rabbit anti-rGH 50 μl SPA reagent (anti-rabbit antibody bound to fluomicrospheres) The plates are sealed and placed on a plate shaker for 30 minutes followed by 10 hours of incubation, settling at 10°-15° C. and counting. In the SPA, rGH bound to an anti-GH rabbit antibody (primary antibody) is reacted with a second antibody bound to fluomicrospheres (SPA Type II RIA available from Amersham). Any radiolabelled rGH which is bound to the primary antibody will be immobilized on the fluomicrospheres which will then produce light. Measurement in a β-scintillation counter makes it possible to calculate the amount of radiolabelled rGH. The amount of radiolabelled rGH bound to the fluomicrospheres decreases with an increasing content of rGH in the sample.

Row | Compound | EC50 | Emax (% of GHRP-6)
1 | C[C@H](NC(=O)[C@@H](Cc1c[nH]c2ccccc12)NC(=O)[C@@H](N)Cc1c[nH]cn1)C(=O)N[C@@H](Cc1c[nH]c2ccccc12)C(=O)N[C@H](Cc1ccccc1)C(=O)N[C@@H](CCCCN)C(N)=O [H--His-D-Trp--Ala--Trp-D-Phe--Lys--NH2] (HELM PEPTIDE1{H.[dW].A.W.[dF].K.[am]}$$$$V2.0) | 2 nM | 100 % of GHRP-6
2 | C[C@H](NC(=O)[C@@H](Cc1ccc2ccccc2c1)NC(=O)[C@@H](C)N)C(=O)N[C@@H](Cc1c[nH]c2ccccc12)C(=O)N[C@H](Cc1ccccc1)C(=O)N[C@@H](CCCCN)C(N)=O [H-D-Ala-D-2Nal--Ala--Trp-D-Phe--Lys--NH2] (HELM PEPTIDE1{[dA].[O=C([C@@H](Cc1ccc2ccccc2c1)N[*:1])[*:2]].A.W.[dF].K.[am]}$$$$V2.0) | 1.8 nM | 85 % of GHRP-6
3 | (2S)-((3-(4-Imidazolyl)propionyl)-D-Phe--Ala--Trp-D-Phe.psi.(CH2 NH)-6-aminohexanol | 5 nM | 80 % of GHRP-6

Now those with a lower EC50, led by results:

Row | EC50 | Compound | Emax (% of GHRP-6)
4 | 0.5 nM | H-His-D-Trp-Ala-Trp-D-Phe.psi.(CH2 NH)Lys-NH2 [Example 2] | 100 % of GHRP-6
5 | 0.8 nM | C[C@@H](N)C(=O)N[C@H](Cc1ccc2ccccc2c1)C(=O)NCC(=O)N[C@@H](Cc1c[nH]c2ccccc12)C(=O)N[C@H](Cc1ccccc1)C(=O)N[C@@H](CCCCN)C(N)=O [H-DAla-D2Nal--Gly--Trp-DPhe--Lys--NH2] (HELM PEPTIDE1{[dA].[O=C([C@@H](Cc1ccc2ccccc2c1)N[*:1])[*:2]].G.W.[dF].K.[am]}$$$$V2.0) | 75 % of GHRP-6
